{"source": "PubChem BioAssay AID485340", "about": "(Southern Research Specialized Biocontainment Screening …, 2010)", "tested_on": "M. tuberculosis growth, meropenem IC50 shift with compound", "assay": "confirmation, meropenem IC50 shift (AID 485340);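 also: growth read after one week of culture plus overnight Alamar Blue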", "key": {"[1]": {"details": "compound alone IC50 vs Mtb, compound dose (near its own IC50) 2.35 µM"}, "[2]": {"details": "compound dose (near its own IC50) 2.35 µM"}, "[3]": {"details": "compound alone IC50 vs Mtb, compound dose (near its own IC50) 9.38 µM"}, "[4]": {"details": "compound dose (near its own IC50) 9.38 µM"}, "[5]": {"details": "compound alone IC50 vs Mtb, compound dose (near its own IC50) 4.69 µM"}, "[6]": {"details": "compound dose (near its own IC50) 4.69 µM"}, "[7]": {"details": "compound alone IC50 vs Mtb, compound dose (near its own IC50) 0.15 µM"}, "[8]": {"details": "compound dose (near its own IC50) 0.15 µM"}, "[9]": {"details": "compound alone IC50 vs Mtb, compound dose (near its own IC50) 1.18 µM"}, "[10]": {"details": "compound dose (near its own IC50) 1.18 µM"}}, "note": "The source made the active and inactive calls. No rule for the calls is given here."}
{"smiles": "Cc1ccc(Cn2c(NC(=O)c3ccco3)nc3ccccc32)cc1", "values": [{"measurement": "IC50", "setting": "[1]", "result": 2.62, "unit": "µM"}, {"measurement": "IC50", "setting": "[2]", "result": "4.24 µM (inactive)"}]}
{"smiles": "COC(=O)c1c(-c2ccc(OC)cc2)oc2ccc(-c3cc(OC)c(OC)c(OC)c3)cc12", "values": [{"measurement": "IC50", "setting": "[3]", "result": 7.72, "unit": "µM"}, {"measurement": "IC50", "setting": "[4]", "result": "6.1 µM (inactive)"}]}
{"smiles": "Cc1c(OCc2ccc(C(=O)O)cc2)ccc2c(-c3ccccc3)cc(=O)oc12", "values": [{"measurement": "IC50", "setting": "[1]", "result": 1.42, "unit": "µM"}, {"measurement": "IC50", "setting": "[2]", "result": "2.62 µM (inactive)"}]}
{"smiles": "Nc1c2c(nc3sc4c(c13)CCCC4)-c1ccccc1CC2", "values": [{"measurement": "IC50", "setting": "[5]", "result": 6.11, "unit": "µM"}, {"measurement": "IC50", "setting": "[6]", "result": "6.03 µM (inactive)"}]}
{"smiles": "N=C1C(c2nc3ccccc3[nH]2)=C(O)CN1c1ccc(F)cc1", "values": [{"measurement": "IC50", "setting": "[3]", "result": 7.73, "unit": "µM"}, {"measurement": "IC50", "setting": "[4]", "result": "4.04 µM (inactive)"}]}
{"smiles": "Cn1c(/C=N/c2nc3ccccc3[nH]2)nc2ccccc21", "values": [{"measurement": "IC50", "setting": "[7]", "result": 0.2, "unit": "µM"}, {"measurement": "IC50", "setting": "[8]", "result": "6.15 µM (inactive)"}]}
{"smiles": "O=C(COC(=O)C1=COCCO1)Nc1ccc2c(c1)OCO2", "values": [{"measurement": "IC50", "setting": "[5]", "result": 3.86, "unit": "µM"}, {"measurement": "IC50", "setting": "[6]", "result": "4.01 µM (inactive)"}]}
{"smiles": "O=C(N/N=C/c1cc([N+](=O)[O-])ccc1O)C1CC1", "values": [{"measurement": "IC50", "setting": "[5]", "result": 4.14, "unit": "µM"}, {"measurement": "IC50", "setting": "[6]", "result": "5.6 µM (inactive)"}]}
{"smiles": "Cc1nn(-c2ccccc2)cc1/C=N/NC(N)=S", "values": [{"measurement": "IC50", "setting": "[5]", "result": 3.7, "unit": "µM"}, {"measurement": "IC50", "setting": "[6]", "result": "2.68 µM (inactive)"}]}
{"smiles": "CSc1nc(-c2ccc(Cl)cc2)nn1S(=O)(=O)c1ccccc1", "values": [{"measurement": "IC50", "setting": "[3]", "result": 9.85, "unit": "µM"}, {"measurement": "IC50", "setting": "[4]", "result": "4.13 µM (inactive)"}]}
{"smiles": "N/C(=N\\c1nc2ccccc2o1)NC(=O)c1ccccc1Br", "values": [{"measurement": "IC50", "setting": "[7]", "result": 0.2, "unit": "µM"}, {"measurement": "IC50", "setting": "[8]", "result": "7.58 µM (inactive)"}]}
{"smiles": "Cc1ccc2[nH]c(O)c(N=Nc3nc4ccccc4s3)c2c1", "values": [{"measurement": "IC50", "setting": "[5]", "result": 6.76, "unit": "µM"}, {"measurement": "IC50", "setting": "[6]", "result": "5.1 µM (inactive)"}]}
{"smiles": "O=C(Nc1ccccc1)Nc1csc2ccccc12", "values": [{"measurement": "IC50", "setting": "[7]", "result": 0.2, "unit": "µM"}, {"measurement": "IC50", "setting": "[8]", "result": "4.85 µM (inactive)"}]}
{"smiles": "CO/N=C(\\C(=O)N[C@@H]1C(=O)N2C(C(=O)O)=C(COC(C)=O)CS[C@H]12)c1csc(N)n1", "note": "(stereo in doubt)", "values": [{"measurement": "IC50", "setting": "[3]", "result": 10.3, "unit": "µM"}, {"measurement": "IC50", "setting": "[4]", "result": "1.01 µM (inactive)"}]}
{"smiles": "COc1cc(C(=O)N/N=C/c2ccc(OC(=O)c3cccc(C)c3)cc2)ccc1O", "values": [{"measurement": "IC50", "setting": "[5]", "result": 4.54, "unit": "µM"}, {"measurement": "IC50", "setting": "[6]", "result": "4.14 µM (inactive)"}]}
{"smiles": "O=C(CCS(=O)(=O)c1ccc(F)cc1)Nc1nnc(-c2cccs2)o1", "values": [{"measurement": "IC50", "setting": "[1]", "result": 2.94, "unit": "µM"}, {"measurement": "IC50", "setting": "[2]", "result": "5.51 µM (inactive)"}]}
{"smiles": "CCCN1C(=O)S/C(=C/c2ccc(N3CCOCC3)o2)C1=O", "values": [{"measurement": "IC50", "setting": "[7]", "result": 0.2, "unit": "µM"}, {"measurement": "IC50", "setting": "[8]", "result": "5.45 µM (inactive)"}]}
{"smiles": "COc1cccc(C(=O)C2CCCN(Cc3ccccn3)C2)c1", "note": "(configuration not stated)", "values": [{"measurement": "IC50", "setting": "[9]", "result": 1.46, "unit": "µM"}, {"measurement": "IC50", "setting": "[10]", "result": "7.15 µM (inactive)"}]}
{"smiles": "O=C(Nc1cccc(Cl)c1N1CCOCC1)c1ccc([N+](=O)[O-])o1", "values": [{"measurement": "IC50", "setting": "[9]", "result": 0.909, "unit": "µM"}, {"measurement": "IC50", "setting": "[10]", "result": "7.42 µM (inactive)"}]}
{"smiles": "CCc1ccc2nc(/N=C(\\N)NC(=O)c3ccccc3)nc(C)c2c1", "values": [{"measurement": "IC50", "setting": "[9]", "result": 1.02, "unit": "µM"}, {"measurement": "IC50", "setting": "[10]", "result": "4.22 µM (inactive)"}]}
{"smiles": "Cc1ccc(-c2[nH][nH]c(=O)c(=O)c2N=Nc2ccccc2)cc1", "values": [{"measurement": "IC50", "setting": "[5]", "result": 4.12, "unit": "µM"}, {"measurement": "IC50", "setting": "[6]", "result": "4.07 µM (inactive)"}]}
